pKi: −log10 of the molar value.
Key:
[1] = Inhibition of wild type Bacteroides thetaiotaomicron beta-mannosidase 2A expressed in Escherichia coli BL21 (DE3) at 37 degC and Ph 5.6 by 2,4-dinitrophenolate release assay
Beta-mannosidase [2] = biological target: Beta-mannosidase (Bacteroides thetaiotaomicron (strain ATCC 29148 / DSM 2079 / NCTC10582 / E50 / VPI-5482), UniProt Q8AAK6, Q646A)
Beta-mannosidase [3] = biological target: Beta-mannosidase (Bacteroides thetaiotaomicron (strain ATCC 29148 / DSM 2079 / NCTC10582 / E50 / VPI-5482), UniProt Q8AAK6, W395A)
Sequence of Beta-mannosidase (Bacteroides thetaiotaomicron (strain ATCC 29148 / DSM 2079 / NCTC10582 / E50 / VPI-5482), UniProt Q8AAK6, W395A) (Q8AAK6 26-864 W395A limits assumed): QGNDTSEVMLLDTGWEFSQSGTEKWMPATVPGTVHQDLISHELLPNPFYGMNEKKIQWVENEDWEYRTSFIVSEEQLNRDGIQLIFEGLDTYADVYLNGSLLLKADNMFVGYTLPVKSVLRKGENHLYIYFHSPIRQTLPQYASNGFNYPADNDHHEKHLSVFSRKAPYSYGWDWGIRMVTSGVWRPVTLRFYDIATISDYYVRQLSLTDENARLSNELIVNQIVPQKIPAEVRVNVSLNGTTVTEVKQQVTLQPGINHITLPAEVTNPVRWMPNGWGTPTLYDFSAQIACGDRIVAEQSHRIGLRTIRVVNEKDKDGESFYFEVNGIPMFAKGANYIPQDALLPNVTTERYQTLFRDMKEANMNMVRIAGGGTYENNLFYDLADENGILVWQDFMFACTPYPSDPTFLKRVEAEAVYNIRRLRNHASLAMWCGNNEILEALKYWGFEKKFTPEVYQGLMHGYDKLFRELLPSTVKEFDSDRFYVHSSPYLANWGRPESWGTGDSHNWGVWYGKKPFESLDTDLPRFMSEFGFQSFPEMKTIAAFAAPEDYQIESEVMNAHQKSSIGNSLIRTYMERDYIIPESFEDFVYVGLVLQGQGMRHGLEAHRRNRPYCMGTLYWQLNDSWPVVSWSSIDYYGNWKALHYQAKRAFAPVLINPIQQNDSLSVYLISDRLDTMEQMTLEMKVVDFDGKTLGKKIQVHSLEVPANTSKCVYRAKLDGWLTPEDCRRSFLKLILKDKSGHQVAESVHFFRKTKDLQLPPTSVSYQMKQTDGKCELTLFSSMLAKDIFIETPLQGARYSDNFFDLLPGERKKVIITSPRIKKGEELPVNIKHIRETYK

Beta-mannosidase [4] = biological target: Beta-mannosidase (Bacteroides thetaiotaomicron (strain ATCC 29148 / DSM 2079 / NCTC10582 / E50 / VPI-5482), UniProt Q8AAK6, W645A)
Sequence of Beta-mannosidase (Bacteroides thetaiotaomicron (strain ATCC 29148 / DSM 2079 / NCTC10582 / E50 / VPI-5482), UniProt Q8AAK6, W645A) (Q8AAK6 26-864 W645A limits assumed): as the sequence (Q8AAK6 26-864 W395A limits assumed) above, with A370W, W620A counted along it

Beta-mannosidase [5] = biological target: Beta-mannosidase (Bacteroides thetaiotaomicron (strain ATCC 29148 / DSM 2079 / NCTC10582 / E50 / VPI-5482), UniProt Q8AAK6, Y537A)
Sequence of Beta-mannosidase (Bacteroides thetaiotaomicron (strain ATCC 29148 / DSM 2079 / NCTC10582 / E50 / VPI-5482), UniProt Q8AAK6, Y537A) (Q8AAK6 26-864 Y537A limits assumed): as the sequence (Q8AAK6 26-864 W395A limits assumed) above, with A370W, Y512A counted along it

Beta-mannosidase [6] = biological target: Beta-mannosidase (Bacteroides thetaiotaomicron (strain ATCC 29148 / DSM 2079 / NCTC10582 / E50 / VPI-5482), UniProt Q8AAK6, W198G)
Sequence of Beta-mannosidase (Bacteroides thetaiotaomicron (strain ATCC 29148 / DSM 2079 / NCTC10582 / E50 / VPI-5482), UniProt Q8AAK6, W198G) (Q8AAK6 26-864 W198G limits assumed): as the sequence (Q8AAK6 26-864 W395A limits assumed) above, with W173G, A370W counted along it

Beta-mannosidase [7] = biological target: Beta-mannosidase (Bacteroides thetaiotaomicron (strain ATCC 29148 / DSM 2079 / NCTC10582 / E50 / VPI-5482), UniProt Q8AAK6, N461A)
Sequence of Beta-mannosidase (Bacteroides thetaiotaomicron (strain ATCC 29148 / DSM 2079 / NCTC10582 / E50 / VPI-5482), UniProt Q8AAK6, N461A) (Q8AAK6 26-864 N461A limits assumed): as the sequence (Q8AAK6 26-864 W395A limits assumed) above, with A370W, N436A counted along it

[8] = Inhibition of Thermotoga maritima Beta-glucosidase GH1

Sequence of Beta-mannosidase (Bacteroides thetaiotaomicron (strain ATCC 29148 / DSM 2079 / NCTC10582 / E50 / VPI-5482), UniProt Q8AAK6, Q646A) (Q8AAK6 26-864 Q646A limits assumed): as the sequence (Q8AAK6 26-864 W395A limits assumed) above, with A370W, Q621A counted along it

SMILES | pKi [1] | pKi (Beta-mannosidase [2]) | pKi (Beta-mannosidase [3]) | pKi (Beta-mannosidase [4]) | pKi (Beta-mannosidase [5]) | pKi (Beta-mannosidase [6]) | pKi (Beta-mannosidase [7]) | other results
OC[C@@H]1[C@@H](O)[C@H](O)[C@H](O)c2nc(CCc3ccccc3)cn21 | 7.24 | 6.61 | 4.33 | 3.49 | 6.15 | 4.85 | 5.50 | –
OC[C@@H]1[C@@H](O)[C@H](O)[C@H](O)c2nc(CNc3ccccc3)cn21 | – | 6.51 | 4.33 | 4.17 | 5.81 | 4.23 | 5.14 | –
OC[C@@H]1[C@@H](O)[C@H](O)[C@H](O)c2nc(COc3ccccc3)cn21 | 6.40 | 6.31 | 3.55 | 3.61 | 5.58 | 3.45 | 4.72 | –
CCC/N=C1\N[C@H](CO)[C@@H](O)[C@H](O)[C@@H]1O | 5.72 | 4.15 | 2.93 | 2.24 | 4.08 | 1.98 | 4.46 | –
OC[C@H]1C[C@H]2[C@@H](O)[C@@H](O)[C@@]1(O)CN2Cc1ccccc1 | – | 3.92 | 2.54 | 1.84 | 3.63 | 2.24 | 2.43 | –
OC[C@H]1C[C@@H]2NC[C@]1(O)[C@H](O)[C@@H]2O | 3.30 | – | – | – | – | – | – | –
OC[C@H]1CNC(O)[C@@H](O)[C@@H]1O (some centres undefined) | – | 4.85 | 4.39 | 5.96 | 4.72 | 3.10 | 3.19 | –
O[C@@H]1[C@@H](O)[C@H](O)[C@@]2(O)CC[C@H]1N2 | 1.96 | – | – | – | – | – | – | –
O[C@H]1[C@H](O)[C@@H](O)CN2CC[C@H](O)[C@H]12 [CASTANOSPERMINE] | 1.64 | – | – | – | – | – | – | –

More lines, main results first:

pKi [1] | SMILES | pKi (Beta-mannosidase [2]) | pKi (Beta-mannosidase [3]) | pKi (Beta-mannosidase [4]) | pKi (Beta-mannosidase [5]) | pKi (Beta-mannosidase [6]) | pKi (Beta-mannosidase [7]) | other results
2.22 | CCCCN1C[C@H](O)[C@@H](O)[C@H](O)[C@H]1CO | – | – | – | – | – | – | –
5.62 | OC[C@@H]1[C@@H](O)[C@H](O)[C@H](O)c2nc(C#Cc3ccccc3)cn21 | – | – | – | – | – | – | –
5.68 | NCCC/N=C1\N[C@H](CO)[C@@H](O)[C@H](O)[C@@H]1O | – | – | – | – | – | – | –
5.66 | OCCC/N=C1\N[C@H](CO)[C@@H](O)[C@H](O)[C@@H]1O | – | – | – | – | – | – | –
4.66 | NCCCC/N=C1\N[C@H](CO)[C@@H](O)[C@H](O)[C@H]1O | – | – | – | – | – | – | –
3.00 | OC[C@@H]1[C@@H](O)[C@H](O)[C@H](O)c2nnnn21 | – | – | – | – | – | – | pKi [8]: 6.77
2.70 | OC[C@H]1N/C(=N/O)[C@H](O)[C@@H](O)[C@@H]1O | – | – | – | – | – | – | –
< 0.40 | CC(C)O[C@@H]1O[C@]2(CO)CC[C@]1(O)[C@@H](O)[C@@H]2O | – | – | – | – | – | – | –
2.05 | OC[C@H]1CNC[C@@H](O)[C@@H]1O [AFEGOSTAT] | – | – | – | – | – | – | –
1.85 | OC[C@H]1NC[C@H](O)[C@@H](O)[C@@H]1O [DUVOGLUSTAT] | – | – | – | – | – | – | –
1.70 | OC[C@H]1ONC[C@@H](O)[C@@H]1O [TETRAHYDROOXAZINE] | – | – | – | – | – | – | –

Reference: ChEMBL document CHEMBL1212704, “Structural and biochemical evidence for a boat-like transition state in beta-mannosidases” (Nat Chem Biol, 2008)
